The numbers were not newly measured in patent publication US6767915B2, “Substituted piperidines as melanocortin receptor agonists” (Merck & Co., Inc., priority 2000, dated 2004), which cites them from elsewhere.

In data set [1] the test system is erectile dysfunction. The conditions noted are these: for duration of effect / onset of action: after an oral dose; for share of men/patients with adequate response: oral.
Data set [2] relates to psychogenic erectile dysfunction.
For data set [3] the following is noted: in vivo, po.

Turning to `Cc1ccc(N(CC2=NCCN2)c2cccc(O)c2)cc1` [phentolamine], in data set [1], the duration of effect is 2 h, the onset of action is 5 to 30 min and the “share of men/patients with adequate response” value is 35-40%.
As for `CCCc1nn(C)c2c(=O)[nH]c(-c3cc(S(=O)(=O)N4CCN(C)CC4)ccc3OCC)nc12` [sildenafil], in data set [1], the duration of effect entry is listed as “about 4 hours”, the onset of action is 30 to 60 min and the “share of men/patients with adequate response” value is “about 70%”.
For the compound “Ac-Nle-c[Asp-His-DPhe-Arg-Trp-Lys]-NH2 [MT-II]”, in data set [2] (injected intramuscularly or subcutaneously, males with psychogenic erectile dysfunction), the response rate is reported as 75%. In data set [2] (subcutaneous injection), the duration of action entry is given as “approximately 2.5 hours” and the “time to onset of erection” value is 10 to 20 min. Also, in data set [3], the “absorption into the systemic circulation” value is “not absorbed into the systemic circulation”.
